In PMC7094737 (Journal of Molecular Biology, 2008):
Positions count from the first letter of the chain named.

Experiments:
MDO1 [1] = molecular target: T1, MDO1 (Homo sapiens, UniProt Q9BQ69); assay: ADPR-1″P hydrolysis; type: biochemical; details: by MDO1; Fig. 2, TLC
T1 sequence (Q9BQ69 83-325): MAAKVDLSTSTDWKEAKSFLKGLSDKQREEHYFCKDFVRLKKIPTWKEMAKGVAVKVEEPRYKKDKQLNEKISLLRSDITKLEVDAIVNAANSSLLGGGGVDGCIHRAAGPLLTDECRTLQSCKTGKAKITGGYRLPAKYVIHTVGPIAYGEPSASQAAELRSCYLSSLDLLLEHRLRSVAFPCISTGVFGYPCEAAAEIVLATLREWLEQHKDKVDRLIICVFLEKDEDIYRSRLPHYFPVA

MDO2 [2] = molecular target: T2, MDO2 (Homo sapiens, UniProt A1Z1Q3); assay: ADPR-1″P hydrolysis; type: biochemical; details: by MDO2; Fig. 2, TLC
T2 sequence (A1Z1Q3 1-243): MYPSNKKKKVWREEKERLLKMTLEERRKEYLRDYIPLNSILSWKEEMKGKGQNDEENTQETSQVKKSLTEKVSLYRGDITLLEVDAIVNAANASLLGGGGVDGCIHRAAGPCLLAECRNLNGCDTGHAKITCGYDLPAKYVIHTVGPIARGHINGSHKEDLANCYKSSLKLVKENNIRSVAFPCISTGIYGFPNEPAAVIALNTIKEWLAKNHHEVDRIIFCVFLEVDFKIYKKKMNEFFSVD

GDAP2 [3] = molecular target: T3, GDAP2 (Homo sapiens, UniProt Q9NXN4); assay: ADPR-1″P hydrolysis; type: biochemical; details: by GDAP2; Fig. 2, TLC
T3 sequence (Q9NXN4 1-231 isoform Q9NXN4-2): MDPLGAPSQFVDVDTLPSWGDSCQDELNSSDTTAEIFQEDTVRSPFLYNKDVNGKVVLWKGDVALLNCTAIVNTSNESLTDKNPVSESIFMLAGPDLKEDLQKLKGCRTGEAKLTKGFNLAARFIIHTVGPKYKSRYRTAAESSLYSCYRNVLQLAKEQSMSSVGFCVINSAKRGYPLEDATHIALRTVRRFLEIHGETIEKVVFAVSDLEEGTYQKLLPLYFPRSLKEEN

SFV macro (nsP3) [4] = molecular target: T4, SFV macro (nsP3) (Semliki forest virus, UniProt P08411); assay: ADPR-1″P hydrolysis; type: biochemical; details: by SFV nsP3 (167-aa and 328-aa similar); Fig. 2, TLC
T4 sequence (P08411 1337-1503 limits assumed): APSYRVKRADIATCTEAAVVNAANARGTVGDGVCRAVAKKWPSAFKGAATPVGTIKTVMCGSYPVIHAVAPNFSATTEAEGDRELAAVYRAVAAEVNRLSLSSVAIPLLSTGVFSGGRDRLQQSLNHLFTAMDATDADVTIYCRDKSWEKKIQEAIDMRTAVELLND

macro domains = assay: Filter binding with radioactive NAD+ alone
MDO1 [5] = molecular target: T1, MDO1; type: binding; details: MDO1, 500 mM NaCl, data not shown
MDO1 [6] = molecular target: T1, MDO1; assay: Competition for poly; type: binding; details: data not shown
SFV macro = molecular target: T5, SFV macro (Semliki forest virus, UniProt P08411); assay: Competition for poly; type: binding; details: data not shown
T5 sequence (P08411 1337-1495 limits assumed): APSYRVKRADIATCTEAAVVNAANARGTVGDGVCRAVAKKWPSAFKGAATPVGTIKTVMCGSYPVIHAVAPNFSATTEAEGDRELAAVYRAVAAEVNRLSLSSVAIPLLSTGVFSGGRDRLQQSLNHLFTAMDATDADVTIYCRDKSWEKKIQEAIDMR

HEV macro [7] = molecular target: T6, HEV macro (Hepatitis E virus genotype 1, UniProt P29324); assay: Competition for poly; type: binding; details: data not shown
T6 sequence (P29324 775-960): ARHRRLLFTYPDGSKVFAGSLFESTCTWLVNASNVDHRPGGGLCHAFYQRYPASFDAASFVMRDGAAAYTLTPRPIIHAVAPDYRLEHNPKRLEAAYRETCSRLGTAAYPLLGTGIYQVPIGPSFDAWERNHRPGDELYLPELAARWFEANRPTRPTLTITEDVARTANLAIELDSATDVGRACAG

MDO2 [8] = molecular target: T2, MDO2; assay: [32P]poly; type: binding; details: to MDO2; Fig. 3c
GDAP2 [9] = molecular target: T3, GDAP2; assay: [32P]poly; type: binding; details: to GDAP2; Fig. 3c
MDO1 [10] = molecular target: T1, MDO1; type: binding; details: to MDO1; Fig. 3b
MDO2 [11] = molecular target: T2, MDO2; type: binding; details: to MDO2; Fig. 3b
GDAP2 [12] = molecular target: T3, GDAP2; type: binding; details: to GDAP2
Poa1p = molecular target: T7, Poa1p (Saccharomyces cerevisiae, UniProt P38218, S2A); type: binding; details: to Poa1p; Fig. 3b
T7 sequence (P38218 1-177 S2A): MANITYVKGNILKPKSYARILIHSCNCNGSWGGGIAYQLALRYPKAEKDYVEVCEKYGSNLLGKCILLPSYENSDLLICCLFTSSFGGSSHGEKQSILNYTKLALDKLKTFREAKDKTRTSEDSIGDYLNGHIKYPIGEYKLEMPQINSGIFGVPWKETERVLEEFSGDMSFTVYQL

SFV macro (nsP3) [13] = molecular target: T4, SFV macro (nsP3); type: binding; details: to SFV macro; Fig. 3b
HEV macro [14] = molecular target: T6, HEV macro; type: binding; details: to HEV macro; Fig. 3b
MDO1 G182Y + G270Y = molecular target: T8, MDO1 G182Y + G270Y (Homo sapiens, UniProt Q9BQ69, G182Y/G270Y); type: binding; details: filter washed with 1 M NaCl, not shown
T8 sequence (Q9BQ69 83-325 G182Y/G270Y): T1 sequence (Q9BQ69 83-325) with G100Y, G188Y

macro proteins = type: biochemical
[15] = monomeric ADP-ribose 1500-fold excess
[16] = molar excess of poly(A) ∼ 400-fold

Molecule: Nc1ncnc2c1ncn2[C@@H]1O[C@H](COP(=O)(O)OP(=O)(O)OC[C@H]2O[C@H](OP(=O)(O)O)[C@H](O)[C@@H]2O)[C@@H](O)[C@H]1O [ADPR-1″P, ADP-ribose-1″ phosphate]
- ADPR-1″P hydrolysis (in words) (MDO1 [1]): equally efficiently as yeast Poa1p
- ADPR-1″P hydrolysis (in words) (MDO2 [2]): equally efficiently as yeast Poa1p
- ADPR-1″P hydrolysis (in words) (GDAP2 [3]): inactive
- ADPR-1″P hydrolysis (in words) (SFV macro (nsP3) [4]): only a minor activity

Molecule: NC(=O)c1ccc[n+]([C@@H]2O[C@H](COP(=O)([O-])OP(=O)(O)OC[C@H]3O[C@@H](n4cnc5c(N)ncnc54)[C@H](O)[C@@H]3O)[C@@H](O)[C@H]2O)c1 [NAD ^+]
- radioactive signal on filter-bound macro domains (macro domains): no radioactive signal

Molecule: ADP-ribose
- dissociation constant in high-salt buffer versus standard conditions (MDO1 [5]): approximately twofold
- competition for the binding of poly(ADP-ribose) (MDO1 [6]; [15]): no competition
- competition for the binding of poly(ADP-ribose) (SFV macro; [15]): no competition
- competition for the binding of poly(ADP-ribose) (HEV macro [7]; [15]): no competition

Molecule: poly(A)
- poly(A) binding (in words) (MDO2 [8]): did not bind poly(A)
- poly(A) binding (in words) (GDAP2 [9]): bound poly(A)
- competition for the binding of poly(ADP-ribose) (MDO1 [6]; [16]): no competition
- competition for the binding of poly(ADP-ribose) (SFV macro; [16]): no competition
- competition for the binding of poly(ADP-ribose) (HEV macro [7]; [16]): no competition

Molecule: poly(ADP-ribose)
- poly(ADP-ribose) binding (in words) (MDO1 [10]): bound poly(ADP-ribose)
- poly(ADP-ribose) binding (in words) (MDO2 [11]): did not show effective binding
- poly(ADP-ribose) binding (in words) (GDAP2 [12]): inefficient
- poly(ADP-ribose) binding (in words) (Poa1p): did not show effective binding
- poly(ADP-ribose) binding (in words) (SFV macro (nsP3) [13]): bound poly(ADP-ribose) effectively
- poly(ADP-ribose) binding (in words) (HEV macro [14]): bound poly(ADP-ribose) effectively
- poly(ADP-ribose) binding after stringent wash (MDO1 G182Y + G270Y): did not have an effect on poly(ADP-ribose) binding
- poly(ADP-ribose) hydrolysis activity (macro proteins): None of the macro proteins degraded poly(ADP-ribose)
